Measured values taken from patent US10351522B2, “Sulfonamide derivative and pharmaceutically acceptable acid addition salt thereof” (UNIVERSITY OF TSUKUBA, priority 2015, dated 2019).
Like-named read-outs stand apart in the source and are kept apart here.

Experiments:
human OX2R = biological target: T1, human OX2R (Homo sapiens, UniProt O43614); assay: Agonist activity against OX2R: intracellular calcium (Fura-2AM, FDSS7000) in CHOOX2R cells; format: cell-based; conditions: relative to orexin-A as full agonist (100%)
T1 construct: expressed in transfected cells; host or cells: CHO (Chinese hamster ovary) cells, line CHOOX2R, co-expressing NFAT-luciferase
T1 sequence (O43614 1-444): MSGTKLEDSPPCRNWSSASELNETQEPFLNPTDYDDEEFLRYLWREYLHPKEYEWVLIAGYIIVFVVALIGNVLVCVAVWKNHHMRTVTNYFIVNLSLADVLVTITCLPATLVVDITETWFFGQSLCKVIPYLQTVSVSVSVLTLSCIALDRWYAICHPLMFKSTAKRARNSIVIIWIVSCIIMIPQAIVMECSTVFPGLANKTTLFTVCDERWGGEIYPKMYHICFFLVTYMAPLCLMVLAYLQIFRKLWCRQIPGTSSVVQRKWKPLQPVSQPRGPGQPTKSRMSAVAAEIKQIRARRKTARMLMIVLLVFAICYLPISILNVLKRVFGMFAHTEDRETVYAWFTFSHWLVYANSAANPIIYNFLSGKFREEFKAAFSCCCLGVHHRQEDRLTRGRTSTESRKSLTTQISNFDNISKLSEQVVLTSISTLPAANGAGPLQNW
Method in brief: (§1)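 Response is agonist activity at 0.1, 1.0 or 10 μM compound as a percentage of the orexin-A full-agonist maximum, taken from 340/380 nm Fura-2 ratio changes. Each cell line is CHO constitutively expressing human OX1R or OX2R with NFAT-luciferase, dye-loaded 60 min with 5 μM Fura-2AM; compound range 10^−7–10^−5 M, 1% DMSO.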

human OX1R = biological target: T2, human OX1R (Homo sapiens, UniProt O43613); assay: Agonist activity against OX1R: intracellular calcium (Fura-2AM, FDSS7000) in CHOOX1R cells; format: cell-based; conditions: for Emax at 0.1 µM / Emax at 1 µM / Emax at 10 µM: read-out: Response (%) OX1R
T2 construct: expressed in transfected cells; host or cells: CHO (Chinese hamster ovary) cells, line CHOOX1R, co-expressing NFAT-luciferase
T2 sequence (O43613 1-425): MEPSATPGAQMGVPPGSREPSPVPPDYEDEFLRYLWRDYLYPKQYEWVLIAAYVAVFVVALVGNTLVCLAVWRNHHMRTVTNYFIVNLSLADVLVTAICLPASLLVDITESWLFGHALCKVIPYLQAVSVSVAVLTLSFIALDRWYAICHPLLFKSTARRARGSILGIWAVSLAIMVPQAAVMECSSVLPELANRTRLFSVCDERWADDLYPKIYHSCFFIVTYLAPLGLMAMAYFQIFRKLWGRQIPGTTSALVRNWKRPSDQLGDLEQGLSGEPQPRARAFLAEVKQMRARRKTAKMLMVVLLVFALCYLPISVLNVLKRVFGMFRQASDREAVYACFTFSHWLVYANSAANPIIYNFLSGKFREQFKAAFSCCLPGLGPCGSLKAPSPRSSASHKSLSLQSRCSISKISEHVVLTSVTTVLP
Method in brief: as §1

[1] = test compound 0.1 μM, relative to orexin-A as full agonist (100%)
[2] = test compound 1.0 μM, relative to orexin-A as full agonist (100%)
[3] = test compound 10 μM, relative to orexin-A as full agonist (100%)
[4] = 0.1 μM test compound, relative to orexin-A as full agonist (100%)
[5] = 1.0 μM test compound, relative to orexin-A as full agonist (100%)
[6] = 10 μM test compound, relative to orexin-A as full agonist (100%)

Structure (SMILES)	Response (%) OX2R (human OX2R; test compound 0.1 μM)	Response (%) OX2R (human OX2R; test compound 1.0 μM)	Response (%) OX2R (human OX2R; test compound 10 μM)	Response (%) OX2R (human OX2R; 0.1 μM test compound)	Response (%) OX2R (human OX2R; 1.0 μM test compound)	Response (%) OX2R (human OX2R; 10 μM test compound)	Response (%) OX1R (human OX1R; [4])	Response (%) OX1R (human OX1R; [5])	Response (%) OX1R (human OX1R; [6])	further results
CCN(Cc1ccccc1)C(=O)c1ccc(OC)c(S(=O)(=O)Nc2cccc(NC(=O)Nc3ccc(N(C)C)cc3)c2)c1 [Example 110]	38%	86%	109%							Response (%) OX1R (human OX1R; [1]): <5%; Response (%) OX1R (human OX1R; [2]): <5%; Response (%) OX1R (human OX1R; [3]): <5%
COc1ccc(-c2cccc(C(=O)N(C)C)c2)cc1S(=O)(=O)Nc1cccc(NC(=O)c2ccc(C)cc2)c1 [Example 17]				<5%	9%	41%	<5%	<5%	13%	
COc1ccc(C(=O)Nc2cccc(N(C)C)c2)cc1S(=O)(=O)Nc1cccc(NC(=O)Nc2cccc(N(C)C)c2)c1 [Example 106]	9%	7%	46%							Response (%) OX1R (human OX1R; [1]): 8%; Response (%) OX1R (human OX1R; [2]): 7%; Response (%) OX1R (human OX1R; [3]): 8%
COc1ccc(-c2cccc(C(=O)N(C)C)c2)cc1S(=O)(=O)Nc1cccc(NC(=O)Nc2ccccn2)c1 [Example 68]				10%	10%	57%	6%	6%	6%	
COc1ccc(Nc2c(Nc3cccc(NS(=O)(=O)c4cc(-c5cccc(C(=O)N(C)C)c5)ccc4OC)c3)c(=O)c2=O)cc1 [Example 81]	<5%	<5%	27%							Response (%) OX1R (human OX1R; [1]): <5%; Response (%) OX1R (human OX1R; [2]): <5%; Response (%) OX1R (human OX1R; [3]): 7%
COc1ccc(NC(=O)Nc2cccc(NS(=O)(=O)c3cc(-c4cccc(C(=O)N(C)C)c4)ccc3OC)c2)cc1 [Example 53]				98%	95%	100%	<8%	6%	26%	
COc1ccc(-c2cccc(C(=O)N(C)C)c2)cc1S(=O)(=O)Nc1cccc(N2CCN(c3ccccc3)C2=O)c1 [Example 128, 4′-methoxy-N,N-dimethyl-3′-(N-(3-(2-oxo-3-phenylimidazolidin-1-yl)phenyl)sulfamoyl)-[1,1′-biphenyl]-3-carboxamide]	10%	77%	105%							Emax at 0.1 µM (human OX1R): < 5%; Emax at 1 µM (human OX1R): < 5%; Emax at 10 µM (human OX1R): 6%
COc1ccc(-c2cccc(C(=O)N(C)C)c2)cc1S(=O)(=O)Nc1cccc(Nc2ccccc2)c1 [Example 30, 4′-methoxy-N,N-dimethyl-3′-(N-(3-(phenylamino)phenyl)sulfamoyl)-[1,1′-biphenyl]-3-carboxamide]				<5%	<5%	39%				Emax at 0.1 µM (human OX1R): < 5%; Emax at 1 µM (human OX1R): < 5%; Emax at 10 µM (human OX1R): < 5%
COc1ccc(-c2cccc(C(=O)N(C)C)c2)cc1S(=O)(=O)Nc1cccc(N(C)C)c1 [Example 96, 3′-(N-(3-(dimethylamino)phenyl)sulfamoyl)-4′-methoxy-N,N-dimethyl-[1,1′-biphenyl]-3-carboxamide]	<5%	<5%	67%							Emax at 0.1 µM (human OX1R; [1]): < 5%; Emax at 1 µM (human OX1R; [2]): < 5%; Emax at 10 µM (human OX1R; [3]): < 5%
COc1ccc(C(=O)NCCCNC(=O)OC(C)(C)C)cc1S(=O)(=O)Nc1cccc(NC(=O)Nc2ccccc2N(C)C)c1 [Example 112, tert-butyl (3-(3-(N-(3-(3-(2-(dimethylamino)phenyl)ureido)phenyl)sulfamoyl)-4-methoxybenzamido)propyl)carbamate]	<5%	26%	69%							Emax at 0.1 µM (human OX1R; [1]): < 5%; Emax at 1 µM (human OX1R; [2]): < 5%; Emax at 10 µM (human OX1R; [3]): < 5%
COc1ccc(-c2cccc(C(=O)N(C)C)c2)cc1S(=O)(=O)Nc1cccc(NC(=O)c2ccc3c(c2)OCO3)c1 [Example 5]				10%	8%	19%	8%	8%	7%	
COc1ccc(-c2cccc(C(=O)N(C)C)c2)cc1S(=O)(=O)Nc1cccc(NC(=O)c2ccccc2C)c1 [Example 16]				<5%	19%	82%	<5%	<5%	10%	

Further lines, with some results ahead:

Response (%) OX2R (human OX2R; test compound 0.1 μM)	Response (%) OX2R (human OX2R; test compound 1.0 μM)	Response (%) OX2R (human OX2R; test compound 10 μM)	Response (%) OX2R (human OX2R; 0.1 μM test compound)	Response (%) OX2R (human OX2R; 1.0 μM test compound)	Response (%) OX2R (human OX2R; 10 μM test compound)	Response (%) OX1R (human OX1R; [4])	Response (%) OX1R (human OX1R; [5])	Response (%) OX1R (human OX1R; [6])	Structure (SMILES)	further results
			<5%	<5%	23%				COc1ccc(-c2cccc(C(=O)N(C)C)c2)cc1S(=O)(=O)Nc1cccc(Nc2c(Nc3cccc(C)c3)c(=O)c2=O)c1 [Example 80, 3′-(N-(3-((3,4-dioxo-2-(m-tolylamino)cyclobut-1-en-1-yl)amino)phenyl)sulfamoyl)-4′-methoxy-N,N-dimethyl-[1,1′-biphenyl]-3-carboxamide]	Emax at 0.1 µM (human OX1R; [4]): < 5%; Emax at 1 µM (human OX1R; [5]): < 5%; Emax at 10 µM (human OX1R; [6]): < 5%
49%	85%	98%							CCOc1ccc(-c2cccc(C(=O)N(C)C)c2)cc1S(=O)(=O)Nc1cccc(NC(=O)Nc2cccc(N(C)C)c2)c1 [Example 119, 3′-(N-(3-(3-(3-(dimethylamino)phenyl)ureido)phenyl)sulfamoyl)-4′-ethoxy-N,N-dimethyl-[1,1′-biphenyl]-3-carboxamide]	Emax at 0.1 µM (human OX1R; [1]): < 5%; Emax at 1 µM (human OX1R; [2]): < 5%; Emax at 10 µM (human OX1R; [3]): < 5%
			95%	96%	82%	<5%	<5%	19%	COc1ccc(-c2cccc(C(=O)N(C)C)c2)cc1S(=O)(=O)Nc1cccc(NC(=O)Nc2ccc(C)cc2)c1 [Example 56]	
			<5%	72%	93%	<5%	<5%	6%	COc1ccc(-c2cccc(C(=O)N(C)C)c2)cc1S(=O)(=O)Nc1cccc(NCc2ccccc2C)c1 [Example 24]	
20%	89%	111%							CCN(Cc1ccccc1)C(=O)c1ccc(OC)c(S(=O)(=O)Nc2cccc(NC(=O)Nc3cccc(N(C)C)c3)c2)c1 [Example 101]	Response (%) OX1R (human OX1R; [1]): <5%; Response (%) OX1R (human OX1R; [2]): <5%; Response (%) OX1R (human OX1R; [3]): <5%
			<5%	35%	63%	<5%	<5%	<5%	COc1ccc(-c2cccc(C(=O)N(C)C)c2)cc1S(=O)(=O)Nc1cccc(Nc2cccc(C(F)(F)F)c2)c1 [Example 35]	
94%	66%	64%							COc1ccc(-c2cccc(C(=O)N(C)C)c2)cc1S(=O)(=O)Nc1cccc(N2CCCN(c3ccc(N(C)C)cc3)C2=O)c1 [Example 135]	Response (%) OX1R (human OX1R; [1]): 8%; Response (%) OX1R (human OX1R; [2]): 14%; Response (%) OX1R (human OX1R; [3]): 83%
			<5%	26%	74%	13%	11%	32%	COc1ccc(-c2cccc(C(=O)N(C)C)c2)cc1S(=O)(=O)Nc1cccc(NC(=O)c2ccccc2Br)c1 [Example 2]	
